Source: PubChem BioAssay AID2060604 (Molecular Pharmacology Branch, DTP, NCI, 2025)

System: 379773-124-R-J2-PDC complex spheroids, viability % test/control
Test: Anticancer human tumor 379773-124-R-J2-PDC patient-derived endometrial carcinoma cell line growth inhibition [CLK]
Details: for IC50: curve of first compound; for viability, T/C: stronger effect = lower value
In short: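 Multi-cell-type spheroids combined patient-derived tumor cells with HUVEC endothelial cells and human mesenchymal stem cells. Paired agents were dosed in half-log steps down from about clinical Cmax, or from 10 microM where Cmax was unknown.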
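Note: compound exposure lasted seven days before the viability readout.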
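Throughout, for viability, T/C: 100% = DMSO vehicle control wells.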

Q: C=CC(=O)Nc1cc(Nc2nccc(-c3cn(C)c4ccccc34)n2)c(OC)cc1N(C)CCN(C)C + CN1CCN(c2cc(C(=O)Nc3cc4cc(-c5cnn(C)c5)ccc4cn3)ccn2)CC1 was tested. Which IC50 (second compound 0.0316 µM) did it give?
A: > 300 nM

Q: What about the IC50 (second compound 0.1 µM) of the same compound?
A: > 300 nM

Q: What about the IC50 (second compound 0.316 µM) of the same compound?
A: < 0.949 nM

Q: And the IC50 (second compound 1 µM)?
A: < 0.949 nM

Q: What about the IC50 (second compound 3.16 µM) of the same compound?
A: < 0.949 nM

Q: And the IC50 (second compound 10 µM)?
A: < 0.949 nM

Q: What about the viability, T/C (second compound 0.0316 µM, first compound 0.000949 µM) of the same compound?
A: 100%

Q: And the viability, T/C (second compound 0.0316 µM, first compound 0.003 µM)?
A: 93.1%

Q: What about the viability, T/C (second compound 0.0316 µM, first compound 0.00949 µM) of the same compound?
A: 99.4%

Q: What about the viability, T/C (second compound 0.0316 µM, first compound 0.03 µM) of the same compound?
A: 84.7%

Q: And the viability, T/C (second compound 0.0316 µM, first compound 0.0949 µM)?
A: 96%

Q: What about the viability, T/C (second compound 0.0316 µM, first compound 0.3 µM) of the same compound?
A: 89.7%

Q: What about the viability, T/C (second compound 0.1 µM, first compound 0.000949 µM) of the same compound?
A: 80.4%

Q: What about the viability, T/C (second compound 0.1 µM, first compound 0.003 µM) of the same compound?
A: 74%

Q: What about the viability, T/C (second compound 0.1 µM, first compound 0.00949 µM) of the same compound?
A: 102%

Q: And the viability, T/C (second compound 0.1 µM, first compound 0.03 µM)?
A: 84%

Q: What about the viability, T/C (second compound 0.1 µM, first compound 0.0949 µM) of the same compound?
A: 76.2%

Q: What about the viability, T/C (second compound 0.1 µM, first compound 0.3 µM) of the same compound?
A: 84.6%

Q: What about the viability, T/C (second compound 0.316 µM, first compound 0.000949 µM) of the same compound?
A: 20.2%

Q: What about the viability, T/C (second compound 0.316 µM, first compound 0.003 µM) of the same compound?
A: 31.4%

Q: And the viability, T/C (second compound 0.316 µM, first compound 0.00949 µM)?
A: 34%

Q: What about the viability, T/C (second compound 0.316 µM, first compound 0.03 µM) of the same compound?
A: 34%

Q: And the viability, T/C (second compound 0.316 µM, first compound 0.0949 µM)?
A: 29.6%

Q: And the viability, T/C (second compound 0.316 µM, first compound 0.3 µM)?
A: 20.9%

Q: What about the viability, T/C (second compound 1 µM, first compound 0.000949 µM) of the same compound?
A: 0.28%

Q: And the viability, T/C (second compound 1 µM, first compound 0.003 µM)?
A: 1.12%

Q: What about the viability, T/C (second compound 1 µM, first compound 0.00949 µM) of the same compound?
A: 1.77%

Q: And the viability, T/C (second compound 1 µM, first compound 0.03 µM)?
A: 0.18%

Q: And the viability, T/C (second compound 1 µM, first compound 0.0949 µM)?
A: 1.57%

Q: And the viability, T/C (second compound 1 µM, first compound 0.3 µM)?
A: 0.13%

Q: And the viability, T/C (second compound 3.16 µM, first compound 0.000949 µM)?
A: 1.26%

Q: What about the viability, T/C (second compound 3.16 µM, first compound 0.003 µM) of the same compound?
A: 0.19%

Q: What about the viability, T/C (second compound 3.16 µM, first compound 0.00949 µM) of the same compound?
A: 0.82%

Q: What about the viability, T/C (second compound 3.16 µM, first compound 0.03 µM) of the same compound?
A: 1.59%

Q: What about the viability, T/C (second compound 3.16 µM, first compound 0.0949 µM) of the same compound?
A: 0.11%

Q: And the viability, T/C (second compound 3.16 µM, first compound 0.3 µM)?
A: 0.61%

Q: And the viability, T/C (second compound 10 µM, first compound 0.000949 µM)?
A: 0.28%

Q: And the viability, T/C (second compound 10 µM, first compound 0.003 µM)?
A: 0.45%

Q: What about the viability, T/C (second compound 10 µM, first compound 0.00949 µM) of the same compound?
A: 0.46%

Q: And the viability, T/C (second compound 10 µM, first compound 0.03 µM)?
A: 0.59%

Q: And the viability, T/C (second compound 10 µM, first compound 0.0949 µM)?
A: 0.28%

Q: What about the viability, T/C (second compound 10 µM, first compound 0.3 µM) of the same compound?
A: 0.26%

Q: Which IC50 (second compound 0.0316 µM) does the source give for CC1(C)CCC(CN2CCN(c3ccc(C(=O)NS(=O)(=O)c4ccc(NCC5CCOCC5)c([N+](=O)[O-])c4)c(Oc4cnc5[nH]ccc5c4)c3)CC2)=C(c2ccc(Cl)cc2)C1 + CN1CCN(c2cc(C(=O)Nc3cc4cc(-c5cnn(C)c5)ccc4cn3)ccn2)CC1 here?
A: 4750 nM

Q: What about the IC50 (second compound 0.1 µM) of the same compound?
A: 5030 nM

Q: And the IC50 (second compound 0.316 µM)?
A: < 31.6 nM

Q: And the IC50 (second compound 1 µM)?
A: < 31.6 nM

Q: And the IC50 (second compound 3.16 µM)?
A: < 31.6 nM

Q: What about the IC50 (second compound 10 µM) of the same compound?
A: < 31.6 nM

Q: What about the viability, T/C (second compound 0.0316 µM, first compound 0.0316 µM) of the same compound?
A: 99.5%

Q: What about the viability, T/C (second compound 0.0316 µM, first compound 0.1 µM) of the same compound?
A: 88.1%

Q: And the viability, T/C (second compound 0.0316 µM, first compound 0.316 µM)?
A: 86%

Q: What about the viability, T/C (second compound 0.0316 µM, first compound 1 µM) of the same compound?
A: 108%

Q: What about the viability, T/C (second compound 0.0316 µM, first compound 3.16 µM) of the same compound?
A: 74.1%

Q: And the viability, T/C (second compound 0.0316 µM, first compound 10 µM)?
A: 6.08%

Q: And the viability, T/C (second compound 0.1 µM, first compound 0.0316 µM)?
A: 84.1%

Q: What about the viability, T/C (second compound 0.1 µM, first compound 0.1 µM) of the same compound?
A: 81.3%

Q: And the viability, T/C (second compound 0.1 µM, first compound 0.316 µM)?
A: 88.3%

Q: What about the viability, T/C (second compound 0.1 µM, first compound 1 µM) of the same compound?
A: 87.8%

Q: And the viability, T/C (second compound 0.1 µM, first compound 3.16 µM)?
A: 83.1%

Q: What about the viability, T/C (second compound 0.1 µM, first compound 10 µM) of the same compound?
A: 1.06%

Q: What about the viability, T/C (second compound 0.316 µM, first compound 0.0316 µM) of the same compound?
A: 26.2%

Q: What about the viability, T/C (second compound 0.316 µM, first compound 0.1 µM) of the same compound?
A: 26.1%

Q: What about the viability, T/C (second compound 0.316 µM, first compound 0.316 µM) of the same compound?
A: 26.7%

Q: What about the viability, T/C (second compound 0.316 µM, first compound 1 µM) of the same compound?
A: 28.9%

Q: And the viability, T/C (second compound 0.316 µM, first compound 3.16 µM)?
A: 24.3%

Q: What about the viability, T/C (second compound 0.316 µM, first compound 10 µM) of the same compound?
A: 1.02%

Q: And the viability, T/C (second compound 1 µM, first compound 0.0316 µM)?
A: 0.19%

Q: And the viability, T/C (second compound 1 µM, first compound 0.1 µM)?
A: 1.14%

Q: And the viability, T/C (second compound 1 µM, first compound 0.316 µM)?
A: 0.4%

Q: And the viability, T/C (second compound 1 µM, first compound 1 µM)?
A: 0.16%

Q: And the viability, T/C (second compound 1 µM, first compound 3.16 µM)?
A: 0.08%

Q: And the viability, T/C (second compound 1 µM, first compound 10 µM)?
A: 0.07%

Q: And the viability, T/C (second compound 3.16 µM, first compound 0.0316 µM)?
A: 0.86%

Q: What about the viability, T/C (second compound 3.16 µM, first compound 0.1 µM) of the same compound?
A: 0.92%

Q: And the viability, T/C (second compound 3.16 µM, first compound 0.316 µM)?
A: 2.05%

Q: And the viability, T/C (second compound 3.16 µM, first compound 1 µM)?
A: 0.09%

Q: And the viability, T/C (second compound 3.16 µM, first compound 3.16 µM)?
A: 0.64%

Q: And the viability, T/C (second compound 3.16 µM, first compound 10 µM)?
A: 0.09%

Q: And the viability, T/C (second compound 10 µM, first compound 0.0316 µM)?
A: 0.1%

Q: And the viability, T/C (second compound 10 µM, first compound 0.1 µM)?
A: 0.14%

Q: What about the viability, T/C (second compound 10 µM, first compound 0.316 µM) of the same compound?
A: 0.15%

Q: And the viability, T/C (second compound 10 µM, first compound 1 µM)?
A: 0.61%

Q: And the viability, T/C (second compound 10 µM, first compound 3.16 µM)?
A: 3.58%

Q: What about the viability, T/C (second compound 10 µM, first compound 10 µM) of the same compound?
A: 0.16%
